How the values were obtained:
[1] = Human microsome stability assay; type: in vitro ADME; conditions: pH 7.4, human liver microsomes, read-out: T½
Description: Rate of metabolism in microsomes was tested as follows:
Human liver microsomes were diluted with buffer C (0.1 M Potassium Phosphate buffer, 1.0 mM EDTA, pH 7.4) to a concentration of […]. Microsomal stability studies were carried out by adding 30 μL of 1.5 μM compound spiking solution to wells (1.5 μL of 500 μM spiking solution (10 μL of 10 mM DMSO stock solution into 190 μL ACN to eventually generate final test concentration of 1 uM) and 18.75 μL of 20 mg/mL liver microsomes into 479.75 μL of Buffer C). All samples were pre-incubated for approximately 15 minutes at 37° C. Following this, the reaction was initiated by adding 15 μL of the NADPH solution (6 mM) with gentle mixing. Aliquots (40 μL) were removed at 0, 5, 15, 30 and 45 minutes and quenched with ACN containing internal standard (135 μL). Protein was removed by centrifugation (4000 rpm, 15 min) and the sample plate analysed for compound concentration by LC-MS/MS. Half-lives were then calculated by standard methods, comparing the concentration of analyte with the amount originally present.
The metabolic stability of the compounds of the invention was assessed in a standard human microsome stability assay (see general methods).

human TLR2 = molecular target: T1, human TLR2 (Homo sapiens, UniProt O60603); test: TLR2 reporter assay (HEK-293-TLR, SEAP); type: cell-based; conditions: concentrations up to 20 uM
T1 construct: host or cells: recombinant HEK-293-TLR cell lines
Description: Samples and controls were tested in duplicate on recombinant HEK-293-TLR cell lines using a cell reporter assay at Invivogen using their standard assay conditions. These cell lines functionally over-express human TLR2 protein as well as a reporter gene which is a secreted alkaline phosphatase (SEAP). The production of this reporter gene is driven by an NFkB inducible promoter. The TLR reporter cell lines activation results are given as optical density values (OD).
20 μl of each test article were used to stimulate the hTLR2 reporter cell lines in a 200 μl of final reaction volume. Samples were tested in duplicate, with at least two concentrations tested—20 uM and 10 uM.
Compounds were tested using a TLR2 reporter assay (see general methods) that measured for stimulation of the TLR2 receptor. Stimulatory effect was measured as an increase in optical density (OD) due to release of secreted alkaline phosphatase (SEAP) and is shown in table 4: […]

PBMCs = test: Cytokine secretion from PBMCs (cytometric bead assay); type: cell-based, human; conditions: 2 days
Description: FIG. 11: Chemokine RANTES secretion (as measured by cytometric bead assay) from PBMC or macrophages stimulated with indicated compound for 48 h.
FIG. 12: IL12p70 secretion (as measured by cytometric bead assay) from PBMC or macrophages stimulated with indicated compound for 48 h.
(§1) FIG. 13: IL1 b secretion (as measured by cytometric bead assay) from PBMC, macrophages or CD4 T cells stimulated with indicated compound for 48 h.
Study 10: PBMCs and macrophages where exposed to compounds 1 or 2 for 2 days (FIG. 11).
Study 11: PBMCs and macrophages where exposed to compounds 1 and 2 for 2 days.
(§2) Study 12: PBMCs, macrophages and CD4+ T cells where exposed to compounds 1 and 2 for 2 days.

CD4+ T cells = test: IL-1 beta secretion from CD4+ T cells (cytometric bead assay); type: cell-based, human; conditions: 2 days
Description: as §1, §2

T1 sequence (O60603 21-784): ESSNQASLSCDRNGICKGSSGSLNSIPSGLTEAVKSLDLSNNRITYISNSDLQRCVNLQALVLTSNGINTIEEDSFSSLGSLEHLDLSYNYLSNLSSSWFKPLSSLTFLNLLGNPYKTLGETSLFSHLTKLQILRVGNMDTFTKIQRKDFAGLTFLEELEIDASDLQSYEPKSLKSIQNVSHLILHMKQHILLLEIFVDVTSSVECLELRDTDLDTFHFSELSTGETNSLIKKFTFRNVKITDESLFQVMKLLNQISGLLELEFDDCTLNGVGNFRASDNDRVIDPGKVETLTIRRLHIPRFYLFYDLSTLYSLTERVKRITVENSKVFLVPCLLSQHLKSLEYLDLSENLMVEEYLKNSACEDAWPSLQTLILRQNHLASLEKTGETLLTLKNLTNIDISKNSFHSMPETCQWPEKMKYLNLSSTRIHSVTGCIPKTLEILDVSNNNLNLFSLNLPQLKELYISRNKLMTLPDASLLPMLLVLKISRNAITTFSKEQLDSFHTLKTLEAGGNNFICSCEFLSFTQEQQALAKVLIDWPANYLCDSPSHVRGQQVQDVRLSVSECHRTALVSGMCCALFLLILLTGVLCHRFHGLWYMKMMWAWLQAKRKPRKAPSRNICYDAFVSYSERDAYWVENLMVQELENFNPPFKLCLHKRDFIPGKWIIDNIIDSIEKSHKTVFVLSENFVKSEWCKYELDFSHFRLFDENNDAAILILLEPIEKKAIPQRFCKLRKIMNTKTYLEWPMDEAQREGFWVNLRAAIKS

CC[C@H]1OC(=O)[C@H](C)[C@@H](O[C@H]2C[C@@H](N(C)C)[C@H](O)[C@@H](C)O2)[C@H](C)[C@@H](O)[C@](C)(O)C[C@@H](C)CN(C)[C@H](C)[C@@H](O)[C@]1(C)O [Compound 1]
half-life at 1 uM [1]: 1.8 h | TLR2 stimulation (in words) (human TLR2): stimulated TLR2 at concentrations down to 5 uM | IL-1 beta secretion in PBMCs (PBMCs): slightly | IL-12p70 secretion from PBMCs (PBMCs): secreted IL-12p70 | IL-1 beta secretion in CD4+ T cells (CD4+ T cells): no IL-1 beta was induced

— patent US20210040134A1, “COMBINATIONS OF MACROLIDE COMPOUNDS AND IMMUNE CHECKPOINT INHIBITORS” (ISR IMMUNE SYSTEM REGULATION HOLDING AB (PUBL), priority 2018, published 2021)
